ChEMBL document CHEMBL5131413, “Cytotoxic effects of the biflavonoids isolated from Selaginella trichoclada on MCF-7 cells and its potential mechanism” (Bioorg Med Chem Lett, 2022)
Activity calls are given as the source filed them. The rule behind the calls is not given here.

Experiments:
Format in all cases: functional, cell-based
MCF7 [1] = experiment: Cytotoxicity against human MCF7 cells measured after 24 hrs by MTT assay; conditions: MCF7, 24 h
MCF7 [2] = experiment: Downregulation of ACSL4 gene in human MCF7 cells at 5 uM by heat map analysis
MCF7 [3] = experiment: Downregulation of NOXO1 gene in human MCF7 cells at 5 uM by heat map analysis
MCF7 [4] = experiment: Downregulation of NOXA1 gene in human MCF7 cells at 5 uM by heat map analysis
MCF7 [5] = experiment: Downregulation of ACSL5 gene in human MCF7 cells at 5 uM by heat map analysis
MCF7 [6] = experiment: Downregulation of STEAP3 gene in human MCF7 cells at 5 uM by heat map analysis
MCF7 [7] = experiment: Downregulation of LPCAT3 gene in human MCF7 cells at 5 uM by heat map analysis
MCF7 [8] = experiment: Downregulation of ATG7 gene in human MCF7 cells at 5 uM by heat map analysis
MCF7 [9] = experiment: Downregulation of TP53 gene in human MCF7 cells at 5 uM by heat map analysis

SMILES: O=C1CC(c2ccc(O)c(-c3c(O)cc4c(c3O)C(=O)CC(c3ccc(O)cc3)O4)c2)Oc2cc(O)cc(O)c21 (stereo not drawn)
- IC50 (MCF7 [1]): 71.2 µM

SMILES: O=c1[nH]cc(F)c(=O)[nH]1 [FLUOROURACIL]
- IC50 (MCF7 [1]): 2.2 µM

SMILES: COc1cc(O)c2c(=O)cc(-c3ccc(O)c(-c4c(O)cc(O)c5c(=O)cc(-c6ccc(O)cc6)oc45)c3)oc2c1 [SEQUOIAFLAVONE]
- IC50 (MCF7 [1]): 58.4 µM

SMILES: O=C1C[C@H](c2ccc(Oc3cc(-c4cc(=O)c5c(O)cc(O)cc5o4)ccc3O)cc2)Oc2cc(O)cc(O)c21
- IC50 (MCF7 [1]): 7.7 µM

SMILES: Cc1c(O)cc2c(c1O)C(=O)C[C@H](c1ccc(Oc3cc(-c4cc(=O)c5c(O)cc(O)cc5o4)ccc3O)cc1)O2
- IC50 (MCF7 [1]): 32.2 µM

SMILES: COc1ccc(-c2cc(=O)c3c(O)cc(O)c(-c4cc(-c5cc(=O)c6c(O)cc(O)cc6o5)ccc4O)c3o2)cc1 [PODOCARPUSFLAVONE A]
- IC50 (MCF7 [1]): 35.1 µM

SMILES: COc1cc(O)c2c(=O)cc(-c3ccc(O)c(-c4c(O)cc5oc(-c6ccc(O)cc6)cc(=O)c5c4OC)c3)oc2c1
- IC50 (MCF7 [1]): 6.9 µM
- inhibition (MCF7 [2]): Active
- inhibition (MCF7 [3]): Active
- inhibition (MCF7 [4]): Active
- inhibition (MCF7 [5]): Active
- inhibition (MCF7 [6]): Active
- inhibition (MCF7 [7]): Active
- inhibition (MCF7 [8]): Active
- inhibition (MCF7 [9]): Active

SMILES: COc1ccc(-c2cc(=O)c3c(O)cc(O)cc3o2)cc1-c1c(O)cc(O)c2c(=O)cc(-c3ccc(O)cc3)oc12 [BILOBETIN]
- IC50 (MCF7 [1]): 26.5 µM

SMILES: O=c1cc(-c2ccc(Oc3cc(-c4cc(=O)c5c(O)cc(O)cc5o4)ccc3O)cc2)oc2cc(O)cc(O)c12 [OCHNAFLAVONE]
- IC50 (MCF7 [1]): 54.5 µM

SMILES: O=c1cc(-c2ccc(O)c(-c3c(O)cc(O)c4c(=O)cc(-c5ccc(O)cc5)oc34)c2)oc2cc(O)cc(O)c12 [AMENTOFLAVONE]
- IC50 (MCF7 [1]): 75.4 µM
